What was measured:
Type in all cases: in vivo
[1] = tested on: corn plants, 111 day, central corn belt variety; experiment: Corn plant chilling (growth rate); details: for Growth Rate, Greenhouse 7-9 d post spray / Growth Rate, Greenhouse 0-2 d post spray / Growth Rate, Growth Chamber 10° C. 2-7 d post spray: Table 4 study; for Growth Rate, Greenhouse 7-9 d post spray: after chilling; for Growth Rate, Greenhouse 0-2 d post spray: before chilling; for Growth Rate, Growth Chamber 10° C. 2-7 d post spray: during chilling at 10° C.
Method: Corn seeds of a 111 day, central corn belt variety were planted in 2-quart pots filled with medium. After the corn grew for 10 days in the greenhouse at 24±3° C. (V2 to V3 growth stage), the plants received a foliar spray application of aqueous solutions of the test compounds containing 0.25% non-ionic surfactant with a volume equivalent to 30 gallons/acre. After spraying, plants were moved back to the greenhouse for 2 days, then moved to a growth chamber kept at 10° C. with a 16:8 light:dark cycle (cold treatment). After 5 days in the cold, plants were returned to the greenhouse for 2 days before being harvested destructively. Results of the studies comparing the growth rate of plants treated with S-ABA with 3′-methyl-(S)-ABA during the experiment are shown in Table 3. In additional studies, the effect of S-ABA and 3′-propargyl-(S)-ABA on corn growth rate in chilling studies was compared.

[2] = tested on: corn plants, commercial 111 day, central corn belt variety; experiment: Corn stomatal conductance; details: for Average Stomatal Conductance (% of Control), 6 DAS: 6 days after spraying; for Average Stomatal Conductance (% of Control), 16 DAS: 16 days after spraying
Method: (§1) In this greenhouse experiment, foliar spray treatments containing 3′-methyl-(S)-abscisic acid, 3′-propargyl-(S)-abscisic acid or (S)-abscisic acid were applied to corn plants to evaluate their effect on gas exchange, as measured through stomatal conductance. Corn plants of a commercial, 111 day, central corn belt variety were grown in the greenhouse under optimal conditions for five weeks and were size-matched into ten groups of five plants. Using an aerosol sprayer, each group was sprayed to drip (25 milliliters per plant) with solutions containing a non-ionic surfactant (0.125%, v/v) and water (control), 2.5 mg, 7.5 mg or 25 mg/plant 3′-methyl-(S)-abscisic acid, or 2.5 mg, 7.5 mg or 25 mg/plant 3′-propargyl-(S)-abscisic acid, or 7.5 mg, 25 mg or 75 mg/plant (5)-ABA, respectively. After spraying, plants were returned to the greenhouse for the duration of the experiment. Stomatal conductance was measured using an AP4 porometer (Delta T Devices, Cambridge, UK) and the conductance for each plant was recorded at approximately the same time of day (˜10 AM) prior to treatment application as well as 1, 2, 5, 6, 9 and 16 days post-spraying.

[3] = tested on: corn plants, commercial 111 day, central corn belt variety; experiment: Corn plant leaf rolling assay and shoot fresh weight under drought; details: for Shoot Fresh Weight, 15 DAS: 12 days drought then 3 days watering; for Average # of Rolled Leaves/Plant, 5 DAS / Average # of Rolled Leaves/Plant, 6 DAS / Average # of Rolled Leaves/Plant, 8 DAS: water withheld; for Average # of Rolled Leaves/Plant, 5 DAS: 5 days after spraying; for Average # of Rolled Leaves/Plant, 6 DAS: 6 days after spraying; for Average # of Rolled Leaves/Plant, 8 DAS: 8 days after spraying
Method: as §1, with “post-spraying. This study was conducted as described above with the following the exceptions. After spraying, plants were put back in the greenhouse and water was withheld for twelve days, simulating drought stress. The plants were then watered to saturation for three consecutive days before the plant shoots were cut at the soil surface and subsequently weighed in grams (fresh weight). Leaf-rolling data and fresh weight data were recorded for each plant following treatment application at the times specified below in Table 6.” for “post-spraying.”

[4] = tested on: soybean plants; experiment: Soybean drought tolerance (stomatal conductance)
Method: In this study, soybean plants were grown for 10 days under ambient lab temperature conditions and illumination of 150 umol m^2 s^−1 and a 16:8 photoperiod. At spraying, the primary leaves were fully expanded and the first trifoliate leaves were partially expanded. The plants were sprayed to dampness with solutions of water, S-ABA, 3′-methyl-(S)-abscisic acid, or 3′-propargyl-(S)-abscisic acid containing 0.025% (v/v) non-ionic surfactant. At times following spraying, the conductance of the primary leaves was measured using an AP4 porometer (Delta T Devices, Cambridge, UK) to evaluate the effect on stomatal conductance. A decrease in stomatal aperture, reflected in the conductance measures, is an immediate and direct effect of applied S-ABA. To simplify the data, the controls were always set to 100%. In Table 9, the effect of spray applications on the stomatal conductance was measured.

[5] = foliar spray 30 mg/l (3.4 g/acre)
[6] = foliar spray 100 mg/l (11.4 g/acre)
[7] = foliar spray 300 mg/l (34.1 g/acre)
[8] = foliar spray 1000 mg/l (113.7 g/acre)
[9] = foliar spray 100 ppm or 2.5 mg/plant
[10] = foliar spray 300 ppm or 7.5 mg/plant
[11] = foliar spray 1000 ppm or 25 mg/plant

## C#CCC1=C(C)[C@](O)(/C=C/C(C)=C\C(=O)O)C(C)(C)CC1=O [3′-propargyl-(S)-ABA, (2Z,4E)-5-((S)-1-hydroxy-2,6,6-trimethyl-4-oxo-3-(prop-2-yn-1-yl)cyclohex-2-en-1-yl)-3-methylpenta-2,4-dienoic acid]
[1]; 3′-propargyl-(S)-ABA particularly between 11.4 and 113.7 g/acre, S-ABA at rates up to 1000 mg/liter (113.7 g/acre)
  Growth during stress recovery following cold: did aid growth during stress recovery
[1]; S-ABA even at 1000 mg/l (113.7 g/acre)
  Maintenance of growth under cold (10° C.) conditions: did not maintain growth under cold stress
[1]; [5]
  Growth Rate, Greenhouse 7-9 d post spray: 1.978 cm/day
  Growth Rate, Greenhouse 0-2 d post spray: 3.239 cm/day
  Growth Rate, Growth Chamber 10° C. 2-7 d post spray: 1.258 cm/day
[1]; [6]
  Growth Rate, Greenhouse 7-9 d post spray: 2.489 cm/day
  Growth Rate, Greenhouse 0-2 d post spray: 2.294 cm/day
  Growth Rate, Growth Chamber 10° C. 2-7 d post spray: 1.173 cm/day
[1]; [7]
  Growth Rate, Greenhouse 7-9 d post spray: 2.500 cm/day
  Growth Rate, Greenhouse 0-2 d post spray: 2.544 cm/day
  Growth Rate, Growth Chamber 10° C. 2-7 d post spray: 1.033 cm/day
[1]; [8]
  Growth Rate, Greenhouse 7-9 d post spray: 2.300 cm/day
  Growth Rate, Greenhouse 0-2 d post spray: 2.172 cm/day
  Growth Rate, Growth Chamber 10° C. 2-7 d post spray: 0.787 cm/day
[2]; [9]
  Average Stomatal Conductance (% of Control), 6 DAS: 80.6 % of Control
  Average Stomatal Conductance (% of Control), 16 DAS: 87.7 % of Control
[2]; [10]
  Average Stomatal Conductance (% of Control), 6 DAS: 74.3 % of Control
  Average Stomatal Conductance (% of Control), 16 DAS: 77.9 % of Control
[2]; [11]
  Average Stomatal Conductance (% of Control), 6 DAS: 56.0 % of Control
  Average Stomatal Conductance (% of Control), 16 DAS: 59.0 % of Control
[2]; regression of the data in Table 5
  Relative potency resulting in a 25% reduction in transpiration, times that seen with S-ABA: 4.83 times
[3]; 100 ppm or 2.5 mg/plant
  Shoot Fresh Weight, 15 DAS: 263.9 grams
  Average # of Rolled Leaves/Plant, 5 DAS: 1.8
  Average # of Rolled Leaves/Plant, 6 DAS: 3.8
  Average # of Rolled Leaves/Plant, 8 DAS: 7.2
[3]; 300 ppm or 7.5 mg/plant
  Shoot Fresh Weight, 15 DAS: 313.1 grams
  Average # of Rolled Leaves/Plant, 5 DAS: 1.8
  Average # of Rolled Leaves/Plant, 6 DAS: 3.6
  Average # of Rolled Leaves/Plant, 8 DAS: 8.0
[3]; 1000 ppm or 25 mg/plant
  Shoot Fresh Weight, 15 DAS: 334.4 grams
  Average # of Rolled Leaves/Plant, 5 DAS: 0.0
  Average # of Rolled Leaves/Plant, 6 DAS: 0.0
  Average # of Rolled Leaves/Plant, 8 DAS: 7.0
[4]; 300 mg/l foliar spray
  Reduction in stomatal conductance at 1 day post spraying: 92%
[4]; foliar spray 300 mg/l, 0.3 mg/plant, Day 1
  Percent Conductance (stomatal conductance, control = 100%), Day 1: 8%
[4]; foliar spray 300 mg/l, 0.3 mg/plant, Day 2
  Percent Conductance (stomatal conductance, control = 100%), Day 2: 14%
[4]; foliar spray 300 mg/l, 0.3 mg/plant, Day 5
  Percent Conductance (stomatal conductance, control = 100%), Day 5: 33%
[4]; foliar spray 300 mg/l, 0.3 mg/plant, Day 6
  Percent Conductance (stomatal conductance, control = 100%), Day 6: 52%
[4]; foliar spray 300 mg/l, 0.3 mg/plant, Day 7
  Percent Conductance (stomatal conductance, control = 100%), Day 7: 57%

Source: patent US10314307B2, “(S)-abscisic acid derivatives for improving plant stress tolerance” (Valent BioSciences Corporation, priority 2015, dated 2019)
